Assays:
hepatitis B virus = assay: Antiviral action on hepatitis B virus in HepG2.2.15 cells (HBV DNA dot-blot hybridization); type: cell-based; conditions: 192 h, 8 days treatment, intra- or extracellular hepatitis B-specific DNA band reduced by 50% compared with untreated sample
Method: The antiviral action of the compounds of the invention on hepatitis B virus was investigated by methods based on those described by M. A. Sells et al., Proc. Natl. Acad. Sci. 84, 1005–1009 (1987) and B. E. Korba et al., Antiviral Research 19, 55–70 (1992).
The antiviral tests were carried out in 96-well microtiter plates. The first vertical row of the plate received only growth medium and HepG2.2.15 cells. It served as virus control.
Stock solutions of the test compounds (50 mM) were initially dissolved in DMSO, and further dilutions were prepared in the HepG2.2.15 growth medium. The compounds according to the invention were usually pipetted in a test concentration of 100 μM (1st test concentration) in each case into the second vertical test row of the microtiter plate and subsequently diluted in twofold steps 2^10 times in growth medium plus 2% by weight of fetal calf serum (volume 25 μl).
Each well of the microtiter plate then contained 225 μl of HepG2.2.15 cell suspension (5×10^4 cells/ml) in growth medium plus 2% by weight of fetal calf serum. The test mixture was incubated at 37° C. and 5% CO2 (v/v) for 4 days.
The supernatant was then aspirated off and discarded, and the wells received 225 μl of freshly prepared growth medium. The compounds according to the invention were each added anew as 10-fold concentrated solution in a volume of 25 μl. The mixtures were incubated for a further 4 days.
The supernatant and/or cells were then harvested and sucked by means of a vacuum onto 96-well dot-blot chambers covered with a nylon membrane (in accordance with the manufacturer's information).
After the supernatants or lysed cells had been transferred to the nylon membrane of the blot apparatus (see above), the intra- or extracellular supernatants of the HepG2.2.15 cells were denatured (1.5 M NaCl/0.5 N NaOH), neutralized (3 M NaCl/0.5 M Tris HCl, pH 7.5) and washed (2×SSC). The DNA was then baked onto the membrane by incubating the filters at 120° C. for 2–4 hours.
Detection of the viral DNA from the treated HepG2.2.15 cells on the nylon filters was usually carried out with nonradioactive, digoxigenin-labeled hepatitis B-specific DNA probes, each of which was labeled with digoxigenin, purified and employed for the hybridization in accordance with the manufacturer's information.
The prehybridization and hybridization took place in 5×SSC, 1× blocking reagent, 0.1% by weight N-lauroylsarcosine, 0.02% by weight SDS and 100 μg of herring sperm DNA. The prehybridization took place at 60° C. for 30 minutes, and the specific hybridization with 20 to 40 ng/ml of the digoxigenized, denatured HBV-specific DNA (14 hours, 60° C.). The filters were then washed.
The immunological detection of the digoxigenin-labeled DNA took place in accordance with the manufacturer's information:
The filters were washed and prehybridized in a blocking reagent (in accordance with the manufacturer's information). Hybridization was then carried out with an anti-DIG antibody coupled to alkaline phosphatase for 30 minutes. After a washing step, the substrate of alkaline phosphatase, CSPD, was added, incubated with the filters for 5 minutes, then packed in plastic film and incubated at 37° C. for a further 15 minutes. The chemiluminescence of the hepatitis B-specific DNA signals was visualized by exposing the filters to an X-ray film (incubation depending on signal strength: 10 minutes to 2 hours).
The half-maximum inhibitory concentration (IC50, 50% inhibitory concentration) was determined as the concentration at which the intra- or extracellular hepatitis B-specific band was reduced by the compound according to the invention by 50% compared with an untreated sample.

HepG2.2.15 cells = assay: Cytotoxicity determination in HepG2.2.15 cells; type: cell-based; conditions: 50% of the cells show a morphology comparable to the cell control
From the text: Before harvesting the supernatants to determine the antiviral effect, the HepG2.2.15 cells were examined under the light microscope or by means of biochemical detection methods (for example Alamar Blue stain or Trypan Blue stain) for cytotoxic changes.
Substance-induced cytotoxic or cytostatic changes in the HepG2.2.15 cells were detected, for example, under the light microscope as changes in cell morphology. Such substance-induced changes in the HepG2.2.15 cells compared with untreated cells were visible, for example, as cytolysis, vacuolation or altered cell morphology. […]
No cytotoxic changes were detectable at concentrations >10 μM of the compounds of the invention.

| melting point [°C] | SMILES | IC50 (hepatitis B virus) [nM] | Tox50 (HepG2.2.15 cells) [µM] |
| --- | --- | --- | --- |
| 161 to 162 | COC(=O)C1=C(CN2CCCC2)NC(c2ncc(F)cc2F)=NC1c1ccc(F)cc1Br (stereo not drawn) | – | – |
| 225 to 227 | COC(=O)C1=C(CN2CCOCC2)NC(c2ncc(F)cc2F)=NC1c1ccc(Cl)cc1Cl (stereo not drawn) | – | – |
| 168 to 170 | COC(=O)C1=C(CN2CCCC2)NC(c2ncc(F)cc2F)=NC1c1ccc(Cl)cc1Cl (stereo not drawn) | – | – |
| 189 to 191 | COC(=O)C1=C(CN2CCSC2)NC(c2ncc(F)cc2F)=NC1c1ccc(Cl)cc1Cl (stereo not drawn) | – | – |
| 142 to 143 | CCN(C)CC1=C(C(=O)OC)C(c2ccc(Cl)cc2Cl)N=C(c2ncc(F)cc2F)N1 (stereo not drawn) | – | – |
| 128 to 131 | COC(=O)C1=C(CN2CCSCC2)NC(c2ncccc2F)=NC1c1ccc(F)cc1Br (stereo not drawn) | – | – |
| 175 | COC(=O)C1=C(CN2CCSC2)NC(c2ncccc2F)=NC1c1ccc(Cl)cc1Cl (stereo not drawn) | – | – |
| 137 | COC(=O)C1=C(CN2CCSCC2)NC(c2ncccc2F)=NC1c1ccc(Cl)cc1Cl (stereo not drawn) | – | – |
| 172 to 173 | COC(=O)C1=C(CN2CCSC2)NC(c2ncccc2F)=NC1c1ccc(F)cc1Br (stereo not drawn) | – | – |
| 155 | COC(=O)C1=C(CN(CCO)CCO)NC(c2ncccc2F)=NC1c1ccc(Cl)cc1Cl (stereo not drawn) | – | – |
| 183 to 184 | COC(=O)C1=C(CN2CCSC2)NC(c2ncc(F)cc2F)=NC1c1ccc(F)cc1Br (stereo not drawn) | – | – |
| 173 to 174 | COC(=O)C1=C(CN2CCSCC2)NC(c2ncc(F)cc2F)=NC1c1ccc(F)cc1Br (stereo not drawn) | – | – |
| 144 to 145 | COC(=O)C1=C(CN(CCO)CCO)NC(c2ncc(F)cc2F)=NC1c1ccc(Cl)cc1Cl (stereo not drawn) | – | – |
| 114 to 116 | COC(=O)C1=C(CN(C)CCO)NC(c2ncc(F)cc2F)=NC1c1ccc(F)cc1Br (stereo not drawn) | – | – |
| 117 to 119 | COC(=O)C1=C(CN(C)CCO)NC(c2ncccc2F)=NC1c1ccc(F)cc1Cl (stereo not drawn) | – | – |
| 145 | COC(=O)C1=C(CN2CCSCC2)NC(c2ncccc2F)=NC1c1ccc(F)cc1Cl (stereo not drawn) | – | – |
| 163 to 164 | COC(=O)C1=C(CN2CCSC2)NC(c2ncccc2F)=NC1c1ccc(F)cc1Cl (stereo not drawn) | – | – |
| 119 to 120 | COC(=O)C1=C(CN(CCO)CCO)NC(c2ncccc2F)=NC1c1ccc(F)cc1Cl (stereo not drawn) | – | – |
| 121 | COC(=O)C1=C(CN(CCO)Cc2ccccc2)NC(c2ncccc2F)=NC1c1ccc(F)cc1Br (stereo not drawn) | – | – |
| 135 | COC(=O)C1=C(CN(CCO)Cc2ccccc2)NC(c2ncc(F)cc2F)=NC1c1ccc(F)cc1Br (stereo not drawn) | – | – |
| 128 | COC(=O)C1=C(CN(CCO)Cc2ccccc2)NC(c2ncccc2F)=NC1c1ccc(F)cc1Cl (stereo not drawn) | – | – |
| 169 to 170 | COC(=O)C1=C(CN2CCSC2)NC(c2nccs2)=NC1c1ccc(Cl)cc1Cl (stereo not drawn) | – | – |
| 133 | COC(=O)C1=C(CN(CCO)CCO)NC(c2nccs2)=NC1c1ccc(Cl)cc1Cl (stereo not drawn) | – | – |
| 132 | COC(=O)C1=C(CN(C)CCO)NC(c2nccs2)=NC1c1ccc(Cl)cc1Cl (stereo not drawn) | – | – |
| 123 to 126 | COC(=O)C1=C(Cn2ccnc2)NC(c2ncc(F)cc2F)=NC1c1ccc(F)cc1Br (stereo not drawn) | – | – |
| 155 to 156 | COC(=O)C1=C(CN2CCCCC2)NC(c2ncccc2F)=NC1c1ccc(Cl)cc1Cl (stereo not drawn) | – | – |
| – | COC(=O)C1=C(CCN2CCSC2)NC(c2ncc(F)cc2F)=NC1c1ccc(F)cc1Cl (stereo not drawn) [Example 2, Methyl 4-(2-chloro-4-fluorophenyl)-2-(3,5-difluoro-2-pyridyl)-6-[2-(1,3-thiazolidin-3-yl)-ethyl]-1,4-dihydropyrimidine-5-carboxylate] | 400 | 38 |
| – | COC(=O)C1=C(CN2CCSCC2)NC(c2ncc(F)cc2F)=N[C@H]1c1ccc(F)cc1Cl [Example 11] | 40 | >8 |

| SMILES | melting point [°C] | IC50 (hepatitis B virus) [nM] | Tox50 (HepG2.2.15 cells) [µM] |
| --- | --- | --- | --- |
| COC(=O)C1=C(CN2CCOCC2)NC(c2ncc(F)cc2F)=N[C@H]1c1ccc(F)cc1Cl [Example 5] | 178 | 2 | 40 |
| COC(=O)C1=C(CN2CCOCC2)NC(c2ncccc2F)=NC1c1ccc(Cl)cc1Cl (stereo not drawn) [Example 7] | 182 to 183 | 25 | 25 |
| COC(=O)C1=C(CN2CCOCC2)NC(c2ncc(F)cc2F)=NC1c1ccc(F)cc1Br (stereo not drawn) [Example 9] | 216 to 218 | 7 | 17 |
| COC(=O)C1=C(CN2CCSCC2)NC(c2ncc(F)cc2F)=NC1c1ccc(Cl)cc1Cl (stereo not drawn) [Example 15] | 166 to 168 | 50 | 3 |
| COC(=O)C1=C(CN2CCOCC2)NC(c2ncccc2F)=NC1c1ccc(F)cc1Br (stereo not drawn) [Example 24] | 156 to 158 | 20 | 80 |
| COC(=O)C1=C(CN2CCOCC2)NC(c2ncc(F)cc2F)=N[C@H]1c1ccc(F)cc1Br [Example 31] | 189 to 190 | 2 | 63 |
| COC(=O)C1=C(CN2CCOCC2)NC(c2ncccc2F)=NC1c1ccc(F)cc1Cl (stereo not drawn) [Example 34] | 161 to 163 | 9 | 60 |
| COC(=O)C1=C(CN2CCOCC2)NC(c2nccs2)=NC1c1ccc(Cl)cc1Cl (stereo not drawn) [Example 45] | 149 | 2 | 34 |

Reference: patent publication US7074784B2, “Medicaments against viral diseases” (priority 2000, dated 2006)
